Here are results for 3 compounds from ChEMBL document CHEMBL4368940, “Development of a novel NURR1/NOT agonist from hit to lead and candidate for the potential treatment of Parkinson's disease” (Bioorg Med Chem Lett, 2019).

The source made the active and inactive calls. The rule behind the calls is not given here.

Data set [1] can be described thus: Drug metabolism in human hepatocytes assessed as 3-(2-(4-chlorophenyl)imidazo[1,2-a]pyridin-6-yl)benzoic acid formation. The format is ADME, cell-based, Hepatocyte.
Data set [2] in a line: Stability in human plasma. The format is ADME, cell-free.
Data set [3] deals with T1, Voltage-gated inwardly rectifying potassium channel KCNH2 (Homo sapiens, UniProt Q12809). As to the kind of experiment: Activation of human ERG.
A short description of data set [4]: Drug metabolism in human liver microsomes. The format is ADME, Microsome. As to conditions: read-out: Drug metabolism.
For data set [5], the target named is Nuclear receptor subfamily 4 group A member 2 (Mus musculus) (UniProt Q06219). As to the kind of experiment: (§1) Agonist activity at Nurr1 in mouse N2A cells harboring NBRE by luciferase reporter gene assay. The format is cell-based.
For data set [6], the target named is Nuclear receptor subfamily 4 group A member 2 (Mus musculus, UniProt Q06219). The description is as §1. The format is cell-based.
The nature of data set [7]: Drug metabolism in mouse liver microsomes. As to conditions: read-out: Drug metabolism. The format is ADME, Microsome.
The next data set has as its target Cytochrome P450 2C9 (Homo sapiens, UniProt P11712). As to the kind of experiment: Inhibition of CYP2C9 (unknown origin). The format is ADME.
Data set [8] has as its target Nuclear receptor subfamily 4 group A member 2 (Mus musculus) (UniProt Q06219). As to the kind of experiment: Agonist activity at Nurr1 in co-culture of mouse primary neurons and microglia assessed as inhibition of LPS-induced neurotoxicity by measuring neuroprotection at 10 uM. Also noted: scale not given: the % may be the effect or the level left.
Data set [9] has the same target. As to the kind of experiment: Agonist activity at Nurr1 in co-culture of mouse primary neurons and microglia assessed as inhibition of LPS-induced neurotoxicity by measuring neuroprotection at 3 uM. Details: scale not given: the % may be the effect or the level left.
Data set [10] deals with Nuclear receptor subfamily 4 group A member 2 (Homo sapiens, UniProt P43354). As to the kind of experiment: Agonist activity at full-length Gal4-fused NOT (unknown origin) expressed in CHO cells by luciferase reporter gene assay. The format is cell-based. Conditions: for EC50: read-out: EC50.
For the next data set, the target named is Cytochrome P450 2D6 (Homo sapiens, UniProt P10635). As to the kind of experiment: Inhibition of CYP2D6 (unknown origin). The format is ADME.
The nature of data set [11]: Lipophilicity, log D of the compound. The format is physicochemical. Conditions: octanol/water.
Data set [12] in a line: Apparent permeability in human Caco2 cells. The format is ADME, cell-based. As to conditions: caco-2.
Data set [13] is described as follows: Dissociation constant, pKa of the compound. The format is physicochemical.
Another data set has as its target CYP450 (Homo sapiens, UniProt P04798+P05177+P05181+P08684+P10632+P10635+P11509+P11712+P13584+P20813+P20815+P20853+P24462+P24903+P33260+P33261+P51589+P78329+P98187+Q02928+Q08477+Q16678+Q16696+Q5TCH4+Q6VVX0+Q7Z449+Q8TAV3+Q96SQ9+Q9HB55). As to the kind of experiment: Induction of CYP450 (unknown origin). The format is ADME, protein assay.
The nature of data set [14]: Genotoxicity in Salmonella typhimurium by Ames test. Conditions: salmonella enterica subsp. enterica serovar typhimurium. The format is toxicity.
Data set [15] is described as follows: Solubility of the compound by HPLC analysis. The format is physicochemical.
The target of a further data set is Cytochrome P450 3A4 (Homo sapiens, UniProt P08684). As to the kind of experiment: Inhibition of CYP3A4 (unknown origin). The format is ADME.
In data set [16] the target is Nuclear receptor subfamily 4 group A member 2 (Mus musculus) (UniProt Q06219). As to the kind of experiment: Agonist activity at Nurr1 in mouse MG7 cells assessed as inhibition of LPS-induced IL1beta secretion at 3 uM. The format is cell-based.
Data set [17] can be described thus: Clearance in human hepatocytes assessed per million cells. The format is ADME, cell-based, Hepatocyte.
Data set [18] can be described thus: Stability in mouse plasma. The format is ADME, cell-free.
Data set [19] deals with Nuclear receptor subfamily 4 group A member 2 (Rattus norvegicus) (UniProt Q07917). As to the kind of experiment: Agonist activity at Nurr1 in rat mesencephalic primary neurons assessed as increase in tyrosine hydroxylase expression at 3 uM.
Another data set concerns Cavia porcellus. As to the kind of experiment: Hemodynamic activity iv dosed anaesthetized guinea pig administered as single dose measured after 5 mins. As to conditions: in vivo. The format is ADME, organism-based.
Data set [20] can be described thus: Cmax in C57BL/6 mouse brain at 3 mg/kg, iv administered as single dose. The format is ADME, organism-based. Details: dose 3 mg/kg, route intravenous.
For a further data set, the system named is Canis familiaris. As to the kind of experiment: Hemodynamic activity iv dosed anaesthetized dog administered as single dose measured after 5 mins. The format is ADME, organism-based, Canis lupus familiaris. Conditions: in vivo.
The species entered for data set [21] is Rattus norvegicus. As to the kind of experiment: Neuroprotective activity in poly(I:C)-induced Sprague-Dawley rat Parkinson's disease lesion model assessed as reduction in IL6 level. The format is functional, organism-based.
The nature of data set [22]: Apparent half-life of the terminal disposition phase in C57BL/6 mouse plasma at 3 mg/kg, iv administered as single dose. The format is ADME, organism-based. Conditions: in vivo.
The nature of data set [23]: Drug level in anaesthetized dog heart administered as single iv dose. The format is ADME, organism-based, Canis lupus familiaris. As to conditions: in vivo, read-out: Drug uptake.
Data set [24] is described as follows: Tmax in C57BL/6 mouse plasma at 10 mg/kg, po administered as single dose. The format is ADME, organism-based.
In data set [25] the target is T1, Voltage-gated inwardly rectifying potassium channel KCNH2. As to the kind of experiment: Inhibition of human ERG.
Data set [26] in a line: AUC in C57BL/6 mouse plasma at 10 mg/kg, po administered as single dose. The format is ADME, organism-based.
The nature of data set [27]: AUC in C57BL/6 mouse plasma at 3 mg/kg, iv administered as single dose. The format is ADME, organism-based.
Data set [28] in a line: Cardiotoxicity in iv dosed anaesthetized guinea pig assessed as electrophysiological changes administered as single dose measured after 5 mins. The format is toxicity, organism-based, Cavia porcellus. Conditions: in vivo.
Data set [29] in a line: Cardiotoxicity in iv dosed anaesthetized dog assessed as electrophysiological changes administered as single dose measured after 5 mins. The format is toxicity, organism-based, Canis lupus familiaris. As to conditions: in vivo.
Data set [30] is described as follows: Drug level in anaesthetized guinea pig heart administered as single iv dose. The format is ADME, organism-based, Cavia porcellus. Conditions: in vivo, read-out: Drug uptake.
Data set [31] can be described thus: Apparent half-life of the terminal disposition phase in C57BL/6 mouse plasma at 10 mg/kg, po administered as single dose. As to conditions: read-out: t1/2 lambda z (converted). The format is ADME, organism-based.
A short description of data set [32]: AUC in C57BL/6 mouse brain at 10 mg/kg, po administered as single dose. The format is ADME, organism-based.
Data set [33] is described as follows: Apparent half-life of the terminal disposition phase in C57BL/6 mouse brain at 3 mg/kg, iv administered as single dose. The format is ADME, organism-based. Conditions: read-out: t1/2 lambda z (converted).
Data set [34] is described as follows: Apparent half-life of the terminal disposition phase in C57BL/6 mouse brain at 10 mg/kg, po administered as single dose. Conditions: read-out: t1/2 lambda z (converted). The format is ADME, organism-based.
Data set [35] is described as follows: Cmax in C57BL/6 mouse plasma at 10 mg/kg, po administered as single dose. The format is ADME, organism-based. Also noted: dose 10 mg/kg, route oral.
A short description of data set [36]: Cmax in C57BL/6 mouse plasma at 3 mg/kg, iv administered as single dose. The format is ADME, organism-based. Also noted: dose 3 mg/kg, route intravenous.
The species entered for data set [37] is Rattus norvegicus. As to the kind of experiment: Neuroprotective activity in poly(I:C)-induced Sprague-Dawley rat Parkinson's disease lesion model assessed as reduction in brain gliosis. The format is functional, organism-based.
Data set [38] is described as follows: Cardiotoxicity in iv dosed anaesthetized guinea pig assessed as electrocardiographic changes administered as single dose measured after 5 mins. The format is toxicity, organism-based, Cavia porcellus. Conditions: in vivo.
A short description of data set [39]: Ratio of AUC in C57BL/6 mouse brain to plasma at 10 mg/kg, po administered as single dose. The format is ADME, organism-based. As to conditions: read-out: Ratio AUC.
Data set [40] is described as follows: Cmax in C57BL/6 mouse brain at 10 mg/kg, po administered as single dose. The format is ADME, organism-based. Details: dose 10 mg/kg, route oral.
Data set [41] concerns Rattus norvegicus. As to the kind of experiment: Antiinflammatory activity in Sprague-Dawley rat assessed as inhibition of LPS-induced TNFalpha release at 30 mg/kg. The format is functional.
Data set [42] in a line: Cardiotoxicity in iv dosed anaesthetized dog assessed as electrocardiographic changes administered as single dose measured after 5 mins. The format is toxicity, organism-based, Canis lupus familiaris. Conditions: in vivo.
The nature of data set [43]: Ratio of AUC in C57BL/6 mouse brain to plasma at 3 mg/kg, iv administered as single dose. The format is ADME, organism-based. Conditions: read-out: Ratio AUC.
A short description of data set [44]: AUC in C57BL/6 mouse brain at 3 mg/kg, iv administered as single dose. The format is ADME, organism-based.
A short description of data set [45]: Drug level in human hepatocytes treated with (3-(2-(4-chlorophenyl)imidazo[1,2-a]pyridin-6-yl)phenyl)methanol. The format is ADME, cell-based, Hepatocyte.

Chain of Nuclear receptor subfamily 4 group A member 2 (Homo sapiens, UniProt P43354) (P43354 whole entry, the tested form may be a part): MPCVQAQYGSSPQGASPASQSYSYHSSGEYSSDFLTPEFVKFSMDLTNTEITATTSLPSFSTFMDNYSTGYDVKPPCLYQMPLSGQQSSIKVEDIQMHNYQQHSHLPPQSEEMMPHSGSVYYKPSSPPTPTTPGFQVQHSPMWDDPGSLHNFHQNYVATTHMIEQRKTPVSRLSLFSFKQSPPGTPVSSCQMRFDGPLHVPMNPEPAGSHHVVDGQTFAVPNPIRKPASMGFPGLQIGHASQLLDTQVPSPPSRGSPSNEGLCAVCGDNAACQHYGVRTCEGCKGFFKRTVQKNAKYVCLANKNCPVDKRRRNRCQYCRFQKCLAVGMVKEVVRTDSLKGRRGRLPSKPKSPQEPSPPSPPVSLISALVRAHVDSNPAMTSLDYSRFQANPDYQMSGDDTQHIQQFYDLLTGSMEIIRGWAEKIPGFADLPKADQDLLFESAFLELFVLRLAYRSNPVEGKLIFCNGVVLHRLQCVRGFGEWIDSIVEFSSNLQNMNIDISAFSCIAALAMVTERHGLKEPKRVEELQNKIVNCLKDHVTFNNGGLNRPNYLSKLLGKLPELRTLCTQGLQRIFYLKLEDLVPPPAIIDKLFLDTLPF
Chain of Nuclear receptor subfamily 4 group A member 2 (Mus musculus) (Q06219 whole entry): as the sequence (P43354 whole entry, the tested form may be a part) above, with T131S, G134S, E354D counted along it
Chain of Nuclear receptor subfamily 4 group A member 2 (Rattus norvegicus) (Q07917 whole entry): as the sequence (P43354 whole entry, the tested form may be a part) above, with T131S, P182R, E354D counted along it
T1 sequence (Q12809 whole entry): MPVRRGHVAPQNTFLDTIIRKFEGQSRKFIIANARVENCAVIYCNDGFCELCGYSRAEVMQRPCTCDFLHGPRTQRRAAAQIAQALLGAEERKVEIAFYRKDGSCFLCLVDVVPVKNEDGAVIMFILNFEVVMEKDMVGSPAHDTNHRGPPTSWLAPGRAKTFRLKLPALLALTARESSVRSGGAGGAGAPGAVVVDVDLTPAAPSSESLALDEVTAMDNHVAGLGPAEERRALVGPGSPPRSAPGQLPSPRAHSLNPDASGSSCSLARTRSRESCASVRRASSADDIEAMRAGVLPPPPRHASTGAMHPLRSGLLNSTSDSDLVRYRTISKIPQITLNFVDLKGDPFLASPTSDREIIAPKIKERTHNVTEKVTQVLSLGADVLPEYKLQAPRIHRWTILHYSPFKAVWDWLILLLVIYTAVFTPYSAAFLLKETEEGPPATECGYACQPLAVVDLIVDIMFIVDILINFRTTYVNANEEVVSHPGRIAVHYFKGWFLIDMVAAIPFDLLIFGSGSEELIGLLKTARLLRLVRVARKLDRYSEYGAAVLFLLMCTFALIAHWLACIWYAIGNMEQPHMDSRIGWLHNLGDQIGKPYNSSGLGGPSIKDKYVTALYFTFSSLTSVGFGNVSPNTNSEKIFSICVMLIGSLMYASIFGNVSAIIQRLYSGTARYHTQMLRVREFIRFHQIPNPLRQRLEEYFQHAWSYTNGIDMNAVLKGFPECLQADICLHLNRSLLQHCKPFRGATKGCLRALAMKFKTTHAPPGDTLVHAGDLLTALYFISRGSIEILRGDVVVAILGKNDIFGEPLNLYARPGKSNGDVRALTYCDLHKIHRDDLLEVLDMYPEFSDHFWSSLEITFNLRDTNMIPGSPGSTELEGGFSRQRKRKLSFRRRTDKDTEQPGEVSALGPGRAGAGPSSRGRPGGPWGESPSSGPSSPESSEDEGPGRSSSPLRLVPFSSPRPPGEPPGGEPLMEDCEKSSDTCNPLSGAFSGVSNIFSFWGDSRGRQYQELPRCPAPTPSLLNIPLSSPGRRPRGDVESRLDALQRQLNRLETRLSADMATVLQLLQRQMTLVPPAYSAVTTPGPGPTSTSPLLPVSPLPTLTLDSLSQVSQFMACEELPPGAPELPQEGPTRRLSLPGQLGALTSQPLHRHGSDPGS
Chain of Cytochrome P450 2C9 (P11712 whole entry): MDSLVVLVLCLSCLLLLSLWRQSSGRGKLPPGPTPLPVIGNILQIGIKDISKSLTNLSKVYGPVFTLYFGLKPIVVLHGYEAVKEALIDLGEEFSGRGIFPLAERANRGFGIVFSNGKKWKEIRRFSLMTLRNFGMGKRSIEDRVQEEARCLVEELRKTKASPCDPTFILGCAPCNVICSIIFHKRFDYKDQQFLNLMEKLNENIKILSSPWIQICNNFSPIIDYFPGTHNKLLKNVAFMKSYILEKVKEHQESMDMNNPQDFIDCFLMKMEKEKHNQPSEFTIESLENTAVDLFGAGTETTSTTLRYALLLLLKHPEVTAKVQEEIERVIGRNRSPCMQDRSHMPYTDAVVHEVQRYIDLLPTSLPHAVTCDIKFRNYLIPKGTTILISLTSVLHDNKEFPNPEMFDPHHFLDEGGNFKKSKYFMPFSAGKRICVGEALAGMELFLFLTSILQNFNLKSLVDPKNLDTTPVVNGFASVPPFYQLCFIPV
Chain of Cytochrome P450 3A4 (P08684 whole entry): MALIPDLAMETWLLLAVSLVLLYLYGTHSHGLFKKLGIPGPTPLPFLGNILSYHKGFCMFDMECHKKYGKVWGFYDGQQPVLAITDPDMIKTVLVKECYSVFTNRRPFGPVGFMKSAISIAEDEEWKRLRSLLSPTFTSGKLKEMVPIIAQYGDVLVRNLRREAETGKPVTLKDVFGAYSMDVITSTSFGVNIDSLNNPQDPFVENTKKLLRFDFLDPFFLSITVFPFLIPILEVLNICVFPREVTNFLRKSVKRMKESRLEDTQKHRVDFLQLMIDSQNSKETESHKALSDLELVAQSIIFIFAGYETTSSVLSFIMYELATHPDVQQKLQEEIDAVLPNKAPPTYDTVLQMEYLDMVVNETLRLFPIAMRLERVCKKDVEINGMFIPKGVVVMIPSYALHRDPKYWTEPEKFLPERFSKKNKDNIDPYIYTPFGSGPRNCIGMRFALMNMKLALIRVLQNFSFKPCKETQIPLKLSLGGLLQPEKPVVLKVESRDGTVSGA
Chain of Cytochrome P450 2D6 (P10635 whole entry): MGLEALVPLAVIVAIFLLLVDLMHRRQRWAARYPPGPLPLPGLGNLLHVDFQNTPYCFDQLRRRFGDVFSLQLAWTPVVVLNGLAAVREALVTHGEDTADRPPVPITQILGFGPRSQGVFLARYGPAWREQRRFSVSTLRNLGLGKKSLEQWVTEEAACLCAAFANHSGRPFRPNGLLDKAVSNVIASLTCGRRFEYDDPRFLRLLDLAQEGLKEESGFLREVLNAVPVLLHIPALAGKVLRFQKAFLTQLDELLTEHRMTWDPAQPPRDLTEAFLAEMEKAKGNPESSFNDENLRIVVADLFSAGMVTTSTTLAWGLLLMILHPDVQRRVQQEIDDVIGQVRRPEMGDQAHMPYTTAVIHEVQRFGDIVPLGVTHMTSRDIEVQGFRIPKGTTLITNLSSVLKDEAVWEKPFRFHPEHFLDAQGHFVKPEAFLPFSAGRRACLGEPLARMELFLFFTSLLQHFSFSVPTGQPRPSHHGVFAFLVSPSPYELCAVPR
Chain of Nuclear receptor subfamily 4 group A member 2 (Mus musculus, UniProt Q06219) (Q06219 whole entry): as the sequence (P43354 whole entry, the tested form may be a part) above, with T131S, G134S, E354D counted along it

As for `OCc1cccc(-c2ccc3nc(-c4ccc(Cl)cc4)cn3c2)c1`, the Drug metabolism result in data set [1] was “Metabolite_Detected”. Moreover, the Stability entry in [2] and in [18] was “Stable” throughout. For the same compound, the results for the EC50 in data set [3], in data set [6] and in data set [10] were 0.9 µM, 0.001 µM and 0.045 to 0.075 µM, respectively. For the same compound, the metabolised in data set [4] amounted to 22%; in data set [7], 8%. Further, the maximum response (Emax) is 240% in [5], 239% in data set [10] and under 20% on CYP450. Besides, the concentration for half-maximal inhibition (IC50) against Cytochrome P450 2C9 is 8.6 µM; against Cytochrome P450 2D6 it was over 10 µM; against Cytochrome P450 3A4, over 10 µM. The Activity in data set [8] was 65%; in data set [9], 37%; in data set [14], “Non-Toxic”; in data set [19] it was 188 to 313%. The compound also yielded a pH-dependent lipophilicity (logD) in [11] of 2.95. In addition, the permeability entry in data set [12] is “Permeable”. In [13], this compound returned a pKa of 5.16. Also, the solubility in [15] is under 1 µM. Further, the inhibition in [16] was found to be 58%. For the same compound, in data set [17], the CLH amounted to 0.42 mL/h.
For `CC(C)(O)c1cccc(-c2ccc3nc(-c4ccc(Cl)cc4)cn3c2)c1`, the Activity result with Cavia porcellus is “Non-Toxic”; with Canis familiaris it was “Non-Toxic”; in [9] it was 86 to 99%; in data set [28], “Non-Toxic”; in data set [29] it was “Non-Toxic”; in data set [38], “Non-Toxic”. For the same compound, the values for the Activity result in data set [42] and in data set [19] were “Non-Toxic” and 188 to 284%, respectively. Also, the maximum concentration (Cmax) is 2.63 µg/mL in [20], 4.17 µg/mL in data set [35], 4.87 µg/mL in [36] and 3.08 µg/mL in data set [40]. Also, the result in the data set filed under Rattus norvegicus [21] and in the data set filed under Rattus norvegicus [37] was Active. Further, in data set [22], the t1/2 lambda z is 98.4 h. In addition, the figures for the concentration in data set [23] and in data set [30] were 40 µM and at most 17 µM, respectively. In addition, the time of peak concentration (Tmax) in data set [24] was 24 h. For the same compound, half-maximal inhibition in [25] (IC50) was put at 1.5 µM. Moreover, the AUC in data set [26] is 70.3 µg·h/mL; in data set [27], 20.6 µg·h/mL; in [32] it was 55.6 µg·h/mL; in [44] it was 15 µg·h/mL. For the same compound, in data set [10], the EC50 amounted to 0.218 µM. Further, the half-life is 194 h in [31], 91.2 h in [33] and 197 h in data set [34]. Moreover, the Kp was 0.8 in [39] and 0.7 in [43]. The inhibition in vivo at 30 mg/kg with Rattus norvegicus [41] was 47%. Besides, the inhibition in [16] fell in the range of 28 to 46%. The CLH in data set [17] is 0.051 mL/h.
In the case of `O=C(O)c1cccc(-c2ccc3nc(-c4ccc(Cl)cc4)cn3c2)c1`, the Drug metabolism result in data set [45] is “Metabolite_Detected”.
